We go through 23 compounds from patent US20100311714A1, “1H-IMIDAZO[4,5-c]QUINOLINONE COMPOUNDS” (priority 2009, published 2010).

SMILES strings stand for the structures.

T1 sequence (O00329 with tags, fused parts or gaps limits assumed): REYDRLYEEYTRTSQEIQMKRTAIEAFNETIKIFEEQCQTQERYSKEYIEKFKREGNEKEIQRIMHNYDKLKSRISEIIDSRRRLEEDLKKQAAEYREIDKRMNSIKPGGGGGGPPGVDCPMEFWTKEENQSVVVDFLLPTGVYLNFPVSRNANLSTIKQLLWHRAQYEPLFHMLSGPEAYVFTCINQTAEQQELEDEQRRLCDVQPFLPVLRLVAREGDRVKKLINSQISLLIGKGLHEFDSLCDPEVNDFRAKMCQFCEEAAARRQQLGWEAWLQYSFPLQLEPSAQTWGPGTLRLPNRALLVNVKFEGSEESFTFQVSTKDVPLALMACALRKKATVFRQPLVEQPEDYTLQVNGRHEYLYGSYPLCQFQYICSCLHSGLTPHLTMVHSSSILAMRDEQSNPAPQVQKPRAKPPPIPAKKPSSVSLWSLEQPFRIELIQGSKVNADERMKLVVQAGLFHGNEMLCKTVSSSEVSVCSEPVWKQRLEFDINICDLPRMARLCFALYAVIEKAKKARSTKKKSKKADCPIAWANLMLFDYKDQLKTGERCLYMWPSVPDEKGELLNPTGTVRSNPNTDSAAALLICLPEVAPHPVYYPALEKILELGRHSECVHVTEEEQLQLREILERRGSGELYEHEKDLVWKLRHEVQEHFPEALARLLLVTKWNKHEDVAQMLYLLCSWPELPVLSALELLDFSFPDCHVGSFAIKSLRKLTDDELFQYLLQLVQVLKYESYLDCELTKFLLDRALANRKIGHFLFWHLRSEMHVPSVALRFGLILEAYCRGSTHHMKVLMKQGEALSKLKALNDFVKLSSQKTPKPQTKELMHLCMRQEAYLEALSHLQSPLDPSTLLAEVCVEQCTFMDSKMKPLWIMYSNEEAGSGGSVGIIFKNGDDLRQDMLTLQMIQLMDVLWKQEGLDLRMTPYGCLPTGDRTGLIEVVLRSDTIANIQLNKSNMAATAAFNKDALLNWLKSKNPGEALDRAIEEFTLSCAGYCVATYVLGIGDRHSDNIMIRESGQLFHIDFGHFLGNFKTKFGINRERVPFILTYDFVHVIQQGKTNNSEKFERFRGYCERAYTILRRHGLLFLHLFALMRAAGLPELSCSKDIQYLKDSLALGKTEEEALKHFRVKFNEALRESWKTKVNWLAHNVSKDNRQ

The first experiment has as its target T1, PI3K delta (Homo sapiens, UniProt O00329).
T1 construct: for the full-length p110-d subunit are generated and fused by overlapping PCR; His tag (C); made in house; host or cells: baculovirus BV1060; Tn5 (Trichoplusia ni) or TiniPro insect cells
Kind of experiment: PI3K delta kinase assay (Kinase-Glo luminescence). The conditions noted are these: read-out: EPK_PI3Kdelta/IC50. Format: biochemical. As for the experimental part: In a more preferred assay, the kinase reaction is performed in a final volume of 10 μL per well of a low volume non binding CORNING, 384 well black plate (Cat. No. #3676). The final concentrations of ATP and phosphatidyl inositol (PI) in the assay are 1 μM and 10 μg/mL respectively. The reaction is started by the addition of ATP.
The components of the assay are added per well as follows:
50 nL test compounds in 90% DMSO per well, in columns 1-20, 8 concentrations (⅓ and 1/3.33 serial dilution step) in single. • Low control: […] of 90% DMSO in half the wells of columns 23-24 (0.45% in final). • High control: 50 nL of reference compound (e.g. compound of Example 7 in WO 2006/122806) in the other half of columns 23-24 (2.5 μM in final). • Standard: 50 nL of reference compound as just mentioned diluted as the test compounds in columns 21-22 • 20 mL ‘buffer’ are prepared per assay: • 200 μL of 1M TRIS HCl pH7.5 (10 mM in final) • 60 μL of 1M MgCl2 (3 mM in final) • 500 μL of 2M NaCl (50 mM in final) • 100 μL of 10% CHAPS (0.05% in final) • 200 μL of 100 mM DTT (1 mM in final) • 18.94 mL of nanopure water • 10 mL ‘PI’ are prepared per assay: • 200 μL of 1 mg/ml L-alpha-Phosphatidylinositol (Liver Bovine, Avanti Polar Lipids Cat. No. 840042C MW=909.12) prepared in 3% OctylGlucoside (10 μg/ml in final) • 9.8 mL of ‘buffer’ • 10 mL ‘ATP’ are prepared per assay: • 6.7 μL of 3 mM stock of ATP giving a final concentration of 1 μM per well • 10 mL of ‘buffer’ • 2.5 mL of each PI3K construct are prepared per assay in ‘PI’ with the following final concentration: • 10 nM PI3K alfa EMV B1075 • 25 nM beta EMV BV949 • 10 nM delta EMV BV1060 • 150 nM gamma EMV BV950 • 5 μL of ‘PI/PI3K’ are added per well. • 5 μl ‘ATP’ are added per well to start the reaction. • The plates are then incubated at room temperature for 60 minutes (alfa, beta, delta) or 120 minutes (gamma). • The reaction is terminated by the addition of 10 μL Kinase-Glo (Promega Cat. No. #6714). • The assay plates are read after 10 minutes in Synergy 2 reader (BioTek, Vermont USA) with an integration time of 100 milliseconds and sensitivity set to 191. • Output: The High control is around 60′000 counts and the Low control is 30′000 or lower • This luminescence assay gives a useful Z′ ratio between 0.4 and 0.7
PI3Kδ BV-1060 p85(iSH2)-Gly Linker-p110d(Full-Length)-C-Term His Tag
PI3K delta is purified in three chromatographic steps: immobilized metal affinity chromatography on a Ni Sepharose resin (GE Healthcare), gel filtration utilizing a Superdex 200 26/60 column (GE Healthcare), and finally a anion exchange step on a Q-HP column (GE Healthcare). All buffers are chilled to 4° C. and lysis is performed chilled on ice. Column fractionation is performed rapidly at room temperature. Typically frozen insect cells are lysed in a hypertonic lysis buffer and applied to a prepared IMAC column. The resin is washed with 3-5 column volumes of lysis buffer, followed by 3-5 column volumes wash buffer containing 45 mM imidazole, and the target protein is then eluted with a buffer containing 250 mM imidazole. Fractions are analyzed by Coomassie stained SDS-PAGE gels, and fractions containing the target protein are pooled and applied to a prepared GFC column. Fractions from the GFC column are analyzed by Coomassie stained SDS-PAGE gels, and fractions containing the target protein are pooled. The pool from the GFC column is diluted into a low salt buffer and applied to a prepared Q-HP column. The column is washed with low salt buffer until a stable A280 baseline absorbance is achieved, and eluted using a 20 column volume gradient from 0 mM NaCl to 500 mM NaCl. Again, fractions from the Q-HP column are analyzed by Coomassie stained SDS-PAGE gels, and fractions containing the target protein are pooled. The final pool is dialyzed into a storage buffer containing 50% glycerol and stored at −20° C. The final pool is assayed for activity in the phosphoinostitol kinase assay. […]
Turning to `Cc1ncccc1-n1c(=O)n(C)c2cnc3ccc(-c4cncc(NC(C)C)c4)cc3c21` [Example 2.24, 8-(5-Isopropylamino-pyridin-3-yl)-3-methyl-1-(2-methyl-pyridin-3-yl)-1,3-dihydro-imidazo[4,5-c]quinolin-2-one], the IC50 was determined as 31 nM. On the same count and under the same terms, under `Cc1ncccc1-n1c(=O)n(C)c2cnc3ccc(-c4cncc(N)c4)cc3c21` [Example 2.25, 8-(5-Amino-pyridin-3-yl)-3-methyl-1-(2-methyl-pyridin-3-yl)-1,3-dihydro-imidazo[4,5-c]quinolin-2-one] stands 57 nM; under `CNc1cncc(-c2ccc3ncc4c(c3c2)n(-c2cccnc2C)c(=O)n4C)c1` [Example 2.26, 3-Methyl-8-(5-methylamino-pyridin-3-yl)-1-(2-methyl-pyridin-3-yl)-1,3-dihydro-imidazo[4,5-c]quinolin-2-one], 46 nM.

In the case of `COc1cc(-c2ccc3ncc4c(c3c2)n(-c2cccnc2C)c(=O)n4C)cnc1C(OC)OC` [Example 2.27, 8-(6-Dimethoxymethyl-5-methoxy-pyridin-3-yl)-3-methyl-1-(2-methyl-pyridin-3-yl)-1,3-dihydro-imidazo[4,5-c]quinolin-2-one], the IC50 is 406 nM. Regarding `CCOc1cc(-c2ccc3ncc4c(c3c2)n(-c2cccnc2C)c(=O)n4C)cnc1COC` [Example 2.28, 8-(5-Ethoxy-6-methoxymethyl-pyridin-3-yl)-3-methyl-1-(2-methyl-pyridin-3-yl)-1,3-dihydro-imidazo[4,5-c]quinolin-2-one], the IC50 was determined as 54 nM. Take `Cc1ncccc1-n1c(=O)n(C)c2cnc3ccc(-c4cncc(N5CCC5)c4)cc3c21` [Example 2.29, 8-(5-Azetidin-1-yl-pyridin-3-yl)-3-methyl-1-(2-methyl-pyridin-3-yl)-1,3-dihydro-imidazo[4,5-c]quinolin-2-one]: the IC50 came out at 504 nM. As for `CCNc1cc(-c2ccc3ncc4c(c3c2)n(-c2cccnc2C)c(=O)n4C)cnc1CO` [Example 2.31, 8-(5-Ethylamino-6-hydroxymethyl-pyridin-3-yl)-3-methyl-1-(2-methyl-pyridin-3-yl)-1,3-dihydro-imidazo[4,5-c]quinolin-2-one], the IC50 was found to be 25 nM.

With `CNc1cc(-c2ccc3ncc4c(c3c2)n(-c2cccnc2C)c(=O)n4C)cnc1C` [Example 2.32, 3-Methyl-8-(6-methyl-5-methylamino-pyridin-3-yl)-1-(2-methyl-pyridin-3-yl)-1,3-dihydro-imidazo[4,5-c]quinolin-2-one], the IC50 came out at 31 nM.

The experiment is the same for the next values; noted with them: read-out: PI3Kdelta/IC50.
As to `COc1ncccc1-n1c(=O)n(C)c2cnc3ccc(-c4cnc5[nH]ccc5c4)cc3c21` [Example 1.2, 1-(2-Methoxy-pyridin-3-yl)-3-methyl-8-(1H-pyrrolo[2,3-b]pyridin-5-yl)-1,3-dihydro-imidazo[4,5-c]quinolin-2-one], the IC50 is 13 nM. Consider `COc1ncccc1-n1c(=O)n(C)c2cnc3ccc(-c4ccc(C(N)=O)cc4)cc3c21` [Example 1.6, 4-[1-(2-Methoxy-pyridin-3-yl)-3-methyl-2-oxo-2,3-dihydro-1H-imidazo[4,5-c]quinolin-8-yl]-benzamide], for which the IC50 turned out to be 163 nM.

Consider `Cc1ncccc1-n1c(=O)n(C)c2cnc3ccc(-c4ccc(C(N)=O)cc4)cc3c21` [Example 2.3, 4-[3-Methyl-1-(2-methyl-pyridin-3-yl)-2-oxo-2,3-dihydro-1H-imidazo[4,5-c]quinolin-8-yl]-benzamide], for which the IC50 stood at 93 nM. On to `CCOc1ncc(-c2ccc3ncc4c(c3c2)n(-c2cccnc2C)c(=O)n4C)cn1` [Example 2.5, 8-(2-Ethoxy-pyrimidin-5-yl)-3-methyl-1-(2-methyl-pyridin-3-yl)-1,3-dihydro-imidazo[4,5-c]quinolin-2-one], for which the IC50 stood at 58 nM.

`Cc1ncccc1-n1c(=O)n(C)c2cnc3ccc(-c4ccc(CO)nc4)cc3c21` [Example 2.6, 8-(6-Hydroxymethyl-pyridin-3-yl)-3-methyl-1-(2-methyl-pyridin-3-yl)-1,3-dihydro-imidazo[4,5-c]quinolin-2-one]: the IC50 was determined as 59 nM. The same measure, in the same setting: the same measure for `Cc1ncccc1-n1c(=O)n(C)c2cnc3ccc(-c4ccc(N)nc4)cc3c21` [Example 2.7, 8-(6-Amino-pyridin-3-yl)-3-methyl-1-(2-methyl-pyridin-3-yl)-1,3-dihydro-imidazo[4,5-c]quinolin-2-one]: 35 nM; for `COc1ccc(-c2ccc3ncc4c(c3c2)n(-c2cccnc2C)c(=O)n4C)cc1OC` [Example 2.9, 8-(3,4-Dimethoxy-phenyl)-3-methyl-1-(2-methyl-pyridin-3-yl)-1,3-dihydro-imidazo[4,5-c]quinolin-2-one]: 37 nM; for `Cc1ncccc1-n1c(=O)n(C)c2cnc3ccc(-c4ccc(OCCCN(C)C)nc4)cc3c21` [Example 2.10, 8-[6-(3-Dimethylamino-propoxy)-pyridin-3-yl]-3-methyl-1-(2-methyl-pyridin-3-yl)-1,3-dihydro-imidazo[4,5-c]quinolin-2-one]: 855 nM.

As for `Cc1ncccc1-n1c(=O)n(C)c2cnc3ccc(-c4cnc(N)c(C(F)(F)F)c4)cc3c21` [Example 2.11, 8-(6-Amino-5-trifluoromethyl-pyridin-3-yl)-3-methyl-1-(2-methyl-pyridin-3-yl)-1,3-dihydro-imidazo[4,5-c]quinolin-2-one], the IC50 worked out at 12 nM.

`COc1ccc(-c2ccc3ncc4c(c3c2)n(-c2cccnc2C)c(=O)n4C)cn1` [Example 2.12, 8-(6-Methoxy-pyridin-3-yl)-3-methyl-1-(2-methyl-pyridin-3-yl)-1,3-dihydro-imidazo[4,5-c]quinolin-2-one]: the IC50 amounted to 32 nM. On the same count and under the same terms, the same measure for `CNc1ccc(-c2ccc3ncc4c(c3c2)n(-c2cccnc2C)c(=O)n4C)cn1` [Example 2.13, 3-Methyl-8-(6-methylamino-pyridin-3-yl)-1-(2-methyl-pyridin-3-yl)-1,3-dihydro-imidazo[4,5-c]quinolin-2-one]: 20 nM; for `Cc1ncccc1-n1c(=O)n(C)c2cnc3ccc(-c4cnc(N(C)C)nc4)cc3c21` [Example 2.15, 8-(2-Dimethylamino-pyrimidin-5-yl)-3-methyl-1-(2-methyl-pyridin-3-yl)-1,3-dihydro-imidazo[4,5-c]quinolin-2-one]: 32 nM. In the case of `CCOc1ncc(-c2ccc3ncc4c(c3c2)n(-c2ncccc2C)c(=O)n4C)cn1` [Example 3.1, 8-(2-Ethoxy-pyrimidin-5-yl)-3-methyl-1-(3-methyl-pyridin-2-yl)-1,3-dihydro-imidazo[4,5-c]quinolin-2-one], the IC50 came out at 851 nM. As for `Cc1cccnc1-n1c(=O)n(C)c2cnc3ccc(-c4ccc(C(N)=O)cc4)cc3c21` [Example 3.3, 4-[3-Methyl-1-(3-methyl-pyridin-2-yl)-2-oxo-2,3-dihydro-1H-imidazo[4,5-c]quinolin-8-yl]-benzamide], the IC50 worked out at 834 nM.

As to `CNc1ncc(-c2ccc3ncc4c(c3c2)n(-c2ncccc2C)c(=O)n4C)cn1` [Example 3.4, 3-Methyl-8-(2-methylamino-pyrimidin-5-yl)-1-(3-methyl-pyridin-2-yl)-1,3-dihydro-imidazo[4,5-c]quinolin-2-one], the IC50 came out at 236 nM.
